Paper PMC8035703, “Effect of Synchronous Versus Sequential Regimens on the Pharmacokinetics and Biodistribution of Regorafenib with Irradiation” (Pharmaceutics, 2021)
“Also recorded” adds a separate entry of the source. Read-outs that look alike come from different tables or passages of the source.

Experiments:
[1] = system: HCC patients; set-up: method as in PMID 29704513; conditions: patients treated with sorafenib followed by regorafenib; cited from earlier work
[2] = Organ distribution of regorafenib in rats with or without RT; assay type: in vivo, Sprague-Dawley rats; conditions: for concentration at 4 h: Sprague-Dawley, rat, 16 mg/kg, 4 h after oral administration
Procedure: According to the formula used to translate doses from animal to human, human equivalent dose (HED, mg/kg) = animal dose (mg/kg) × animal km/human km, we calculated the daily dose of regorafenib for rats to be 16 (mg/kg/day). The rats were randomly divided into ten groups with six rats in each group. The concurrent groups treated with regorafenib 1 h after RT, in the same day, to mimic regorafenib concurrent with RT in the daily practice. The sequential groups treated with regorafenib following RT (not in the same day), to mimic RT followed by regorafenib in the daily practice. The one fraction study group included (A) a sham group, regorafenib with RT0 Gy (regorafenib × 1 d); concurrent groups treated with regorafenib 1 h after (B) RT2 Gy with 1 fraction (RT2 Gy × 1 f’x) and (D) RT9 Gy with 1 fraction (RT9 Gy × 1 f’x); and sequential groups treated with regorafenib 24 h after (C) RT2 Gy × 1 f’x and (E) RT9 Gy × 1 f’x. Continued treatment mimicking clinical practice was applied to (A) a sham group, regorafenib (p.o. (per os), q.d. × 3 d) with RT0 Gy (regorafenib × 3 d); concurrent groups treated with regorafenib (p.o., q.d. × 3 d) 1 h after (B) RT2 Gy with 3 fractions (RT2 Gy × 3 f’x) and (D) RT9 Gy with 3 fractions (RT9Gy × 3 f’x); and sequential groups treated with regorafenib 24 h (p.o., q.d. × 3 d) after (C) RT2 Gy × 3 f’x and (E) RT9 Gy × 3 f’x. (Figure 1A,B).
Organs, including the brain, liver, heart, spleen, lung and kidney, were collected, weighed and stored at −20 °C, until analysis.
The organ samples were homogenized in 50% aqueous acetonitrile (sample weight: volume = 1:5) and centrifuged at 13,000× g, for 10 min, at 4 °C. The supernatant was stored at −20 °C, until analysis. Additionally, 150 μL of IS solution (diethylstilbestrol) was combined with each organ sample (50 μL) for protein precipitation. Finally, the filtrate (20 μL) was analyzed by HPLC.

concentration at 4 h ([2]; brain, oral, RT2 Gy × 1 f'x followed by regorafenib 16 mg/kg × 1 d (sequential), read-out: Concentration in brain): 80 ± 60 ng/g
concentration at 4 h ([2]; brain, oral, RT2 Gy × 3 f'x followed by regorafenib 16 mg/kg × 3 d (sequential), read-out: Concentration in brain): 30 ± 50 ng/g
concentration at 4 h ([2]; brain, oral, RT2 Gy × 3 f'x with regorafenib 16 mg/kg × 3 d (concurrent), read-out: Concentration in brain): 20 ± 50 ng/g
concentration at 4 h ([2]; brain, oral, RT9 Gy × 1 f'x with regorafenib 16 mg/kg × 1 d (concurrent), read-out: Concentration in brain): 10 ± 20 ng/g
concentration at 4 h ([2]; heart, oral, RT2 Gy × 1 f'x followed by regorafenib 16 mg/kg × 1 d (sequential), read-out: Concentration in heart): 780 ± 270 ng/g
concentration at 4 h ([2]; heart, oral, RT2 Gy × 3 f'x followed by regorafenib 16 mg/kg × 3 d (sequential), read-out: Concentration in heart): 290 ± 180 ng/g
concentration at 4 h ([2]; heart, oral, RT2 Gy × 3 f'x with regorafenib 16 mg/kg × 3 d (concurrent), read-out: Concentration in heart): 30 ± 30 ng/g
concentration at 4 h ([2]; heart, oral, RT9 Gy × 1 f'x with regorafenib 16 mg/kg × 1 d (concurrent), read-out: Concentration in heart): 360 ± 330 ng/g
concentration at 4 h ([2]; kidney, oral, RT2 Gy × 1 f'x followed by regorafenib 16 mg/kg × 1 d (sequential), read-out: Concentration in kidneys): 590 ± 270 ng/g
concentration at 4 h ([2]; kidney, oral, RT2 Gy × 3 f'x followed by regorafenib 16 mg/kg × 3 d (sequential), read-out: Concentration in kidneys): 730 ± 440 ng/g
concentration at 4 h ([2]; kidney, oral, RT2 Gy × 3 f'x with regorafenib 16 mg/kg × 3 d (concurrent), read-out: Concentration in kidneys): 130 ± 60 ng/g
concentration at 4 h ([2]; kidney, oral, RT9 Gy × 1 f'x with regorafenib 16 mg/kg × 1 d (concurrent), read-out: Concentration in kidneys): 180 ± 50 ng/g
concentration at 4 h ([2]; liver, oral, RT2 Gy × 1 f'x followed by regorafenib 16 mg/kg × 1 d (sequential), read-out: Concentration in liver): 2280 ± 750 ng/g
concentration at 4 h ([2]; liver, oral, RT2 Gy × 3 f'x followed by regorafenib 16 mg/kg × 3 d (sequential), read-out: Concentration in liver): 1680 ± 650 ng/g
concentration at 4 h ([2]; liver, oral, RT2 Gy × 3 f'x with regorafenib 16 mg/kg × 3 d (concurrent), read-out: Concentration in liver): 550 ± 270 ng/g
concentration at 4 h ([2]; liver, oral, RT9 Gy × 1 f'x with regorafenib 16 mg/kg × 1 d (concurrent), read-out: Concentration in liver): 1010 ± 580 ng/g
concentration at 4 h ([2]; lung, oral, RT2 Gy × 1 f'x followed by regorafenib 16 mg/kg × 1 d (sequential), read-out: Concentration in lung): 1270 ± 640 ng/g
concentration at 4 h ([2]; lung, oral, RT2 Gy × 3 f'x followed by regorafenib 16 mg/kg × 3 d (sequential), read-out: Concentration in lung): 990 ± 430 ng/g
concentration at 4 h ([2]; lung, oral, RT2 Gy × 3 f'x with regorafenib 16 mg/kg × 3 d (concurrent), read-out: Concentration in lung): 210 ± 90 ng/g
concentration at 4 h ([2]; lung, oral, RT9 Gy × 1 f'x with regorafenib 16 mg/kg × 1 d (concurrent), read-out: Concentration in lung): 170 ± 140 ng/g
concentration at 4 h ([2]; spleen, oral, RT2 Gy × 1 f'x followed by regorafenib 16 mg/kg × 1 d (sequential), read-out: Concentration in spleen): 680 ± 300 ng/g
concentration at 4 h ([2]; spleen, oral, RT2 Gy × 3 f'x followed by regorafenib 16 mg/kg × 3 d (sequential), read-out: Concentration in spleen): 410 ± 240 ng/g
concentration at 4 h ([2]; spleen, oral, RT2 Gy × 3 f'x with regorafenib 16 mg/kg × 3 d (concurrent), read-out: Concentration in spleen): 80 ± 60 ng/g
concentration at 4 h ([2]; spleen, oral, RT9 Gy × 1 f'x with regorafenib 16 mg/kg × 1 d (concurrent), read-out: Concentration in spleen): 140 ± 70 ng/g
concentration at 4 h ([2]; male, brain, oral, RT2 Gy × 1 f'x with regorafenib 16 mg/kg × 1 d (concurrent), read-out: Concentration in brain): 20 ± 30 ng/g
concentration at 4 h ([2]; male, brain, oral, RT9 Gy × 1 f'x followed by regorafenib 16 mg/kg × 1 d (sequential), read-out: Concentration in brain): 60 ± 50 ng/g
concentration at 4 h ([2]; male, brain, oral, RT9 Gy × 3 f'x followed by regorafenib 16 mg/kg × 3 d (sequential), read-out: Concentration in brain): 40 ± 80 ng/g
concentration at 4 h ([2]; male, brain, oral, RT9 Gy × 3 f'x with regorafenib 16 mg/kg × 3 d (concurrent), read-out: Concentration in brain): 10 ± 20 ng/g
concentration at 4 h ([2]; male, brain, po, 16 mg/kg p.o. × 1 d, no RT, read-out: Concentration in brain): 30 ± 40 ng/g
concentration at 4 h ([2]; male, brain, po, 16 mg/kg p.o. × 3 d, no RT, read-out: Concentration in brain): 10 ± 20 ng/g
concentration at 4 h ([2]; male, heart, oral, RT2 Gy × 1 f'x with regorafenib 16 mg/kg × 1 d (concurrent), read-out: Concentration in heart): 290 ± 170 ng/g
concentration at 4 h ([2]; male, heart, oral, RT9 Gy × 1 f'x followed by regorafenib 16 mg/kg × 1 d (sequential), read-out: Concentration in heart): 870 ± 140 ng/g
concentration at 4 h ([2]; male, heart, oral, RT9 Gy × 3 f'x followed by regorafenib 16 mg/kg × 3 d (sequential), read-out: Concentration in heart): 170 ± 270 ng/g
concentration at 4 h ([2]; male, heart, oral, RT9 Gy × 3 f'x with regorafenib 16 mg/kg × 3 d (concurrent), read-out: Concentration in heart): 90 ± 70 ng/g
concentration at 4 h ([2]; male, heart, po, 16 mg/kg p.o. × 1 d, no RT, read-out: Concentration in heart): 450 ± 310 ng/g
concentration at 4 h ([2]; male, heart, po, 16 mg/kg p.o. × 3 d, no RT, read-out: Concentration in heart): 250 ± 100 ng/g
concentration at 4 h ([2]; male, kidney, oral, RT2 Gy × 1 f'x with regorafenib 16 mg/kg × 1 d (concurrent), read-out: Concentration in kidneys): 210 ± 110 ng/g
SMILES: CNC(=O)c1cc(Oc2ccc(NC(=O)Nc3ccc(Cl)c(C(F)(F)F)c3)c(F)c2)ccn1 [regorafenib, Regorafenib]
Median overall survival [1]: 26 months
Biodistribution in heart, liver, lung, spleen and kidneys (in words) ([2]; concurrent RT2 Gy × 3 f'x and RT9 Gy × 3 f'x vs control (regorafenib × 3 d)): clearly decreased the biodistribution of regorafenib; also recorded: obviously decreased the biodistribution of regorafenib
